The target in test [1] is MMP-9 (also known as gelatinase) (Homo sapiens, UniProt P14780). The test is described as follows: MMP inhibition, fluorogenic peptide assay. Particulars: for MMP-9 inhibitory activity (in words): fluorogenic peptide assay.
Experimental: In this system, the substrate is a fluorogenic peptide which, when cleaved by the MMP, undergoes an increase in fluorescence. The reaction is followed by monitoring the increase in the fluorescence of the reaction mixture for 2 hours. The rate of fluorescence increase is a measure of the reaction rate. The assay is performed in microtiter plates using triplicate wells per condition. The test sample contains specific MMP and the putative MMP inhibitor at several concentrations and the mean rate of the reaction at each of these conditions is compared to the reaction rate in the absence of inhibitor. The concentration of the test sample that inhibits the reaction rate (i.e., MMP inhibition) by 50% is defined as the “50% Inhibitory Concentration” or IC50.
The target of test [2] is mushroom tyrosinase. The test is described as follows: Inhibition of mushroom tyrosinase (tyrosine to DOPAchrome, OD475). In kind it is biochemical. Here is the method:
The skin lightening effect of SHA was determined by measuring the inhibition of tyrosinase since tyrosinase is the enzyme that catalyzes the rate limiting steps in melanin synthesis. Inhibition of mushroom tyrosinase was assayed by measuring conversion of tyrosine to DOPAchrome (OD475) in the presence of varying concentrations of test sample. […] Thirty nanomolar SHA inhibited over 30% of the activity. The IC50 is 60 nM.

Test [3] deals with normal human keratinocytes. The test is described as follows: UVB-induced PGE2 production by keratinocytes (ELISA, normalized to MTT viability). In kind it is cell-based. To be noted: UVB 30 mJ/cm2; SHA at as low as 5 uM. Here is the method: The anti-inflammatory effect of SHA was measured by pretreating normal human keratinocytes with different concentrations of SHA for 24 hrs. The cells were UVB irradiated with a single sub-lethal dose of 30 mJ/cm2 using a Phillips TL20W12 tube. Cells were further incubated for 24 hrs with SHA and prostaglandin E2 (PGE2) levels in the supernatant media samples were analyzed by ELISA. 20 uM indomethacin was included as a positive control as an anti-inflammatory agent. The cell viability was also tested at the end of the 24 hr incubation period using the MTT metabolism method. […] The data was expressed as PGE2 production normalized to cell viability. PGE2, or prostaglandin E2, is an inflammatory mediator produced during inflammatory reactions in the skin. Any agents that inhibit the production of PGE2 will therefore have a beneficial effect of preventing inflammation (in other words, an anti-inflammatory effect). The top three bars display the effect of SHA at various concentrations on the UVB irradiated cells, the 4th bar the effect of indomethscin, the 5th bar the effect of UVB radiation on untreated cells, while the bottom bar is a control (untreated cells, not UVB irradiated).
In general terms: In an ELISA, binding on a coated surface is turned into a signal by an enzyme label.

The test system of test [4] is normal human keratinocytes. The test is described as follows: Cornified envelope formation / differentiation of keratinocytes. To be noted: 0.15 mM calcium medium; relative to high calcium (1 mM) cultures. It counts as cell-based. Here is the method: To measure the induction of differentiation of keratinocytes, cultures of normal human keratinocytes were incubated with medium containing 0.15 mM calcium (low calcium prevents CE formation and keeps cells in growth mode). The cells were treated with different amounts of SHA and the amount of the highly cross-linked, detergent insoluble CE formation was quantified after dissolving the cells in 2% SDS/20 mM Dithiothrietol (DTT). The insoluble CE was centrifuged, resuspended in water and the optical density of the turbid solution was measured at 400 nm. The increase in turbidity indicates increased CE formation. […] The results, presented in the right column, are expressed relative to high calcium (1 mM) containing cultures.

Test [5] deals with fibroblasts. The test is described as follows: Integrin expression of fibroblasts (ELISA). In kind it is cell-based. Particulars: 48 hrs. Here is the method:
(§1) In addition, SHA stimulates collagen and integrin synthesis of keratinocytes and fibroblasts. This was measured by treating keratinocyte or fibroblast cultures with SHA for 48 hrs and testing the medium for collagen and integrin secretion using appropriate antibodies using commercially available ELISA kits. The ELISA measures the secretion of collagen-1 and three different types of integrins, integrin alpha-2, -3 and -5. […] The data, presented in the right column, are expressed as a % stimulation of collagen secretion as compared to the control. […] Stimulation of collagen synthesis would provide more integrity to the dermis and would benefit in reducing wrinkles and will provide anti-aging benefits.
(§2) SHA can also stimulate integrin expression of fibroblasts and keratinocytes. […] In each table, that left column lists the various concentrations of SHA used in the tests, while the three right columns present integrin expression data, for different varieties of integrin, expressed as a % stimulation with respect to the control (0 mM SHA). […] Integrin is a vital component of the cell extracellular matrix that helps in cell adhesion and attachment. The increased amount of integrin helps cells to attach and grow, making skin firmer and more cellular. […]

The test system of test [6] is keratinocytes. The test can be described thus: Integrin expression of keratinocytes (ELISA). To be noted: 48 hrs. In kind it is cell-based. Here is the method:
as §1, §2

In test [7] the test system is fibroblasts. The test is described as follows: Fibroblast collagen-1 secretion (ELISA). To be noted: 0.1 mM SHA, 48 hrs. In kind it is cell-based. The protocol: as §1
Test [8] in a line: UV-induced lipid peroxidation of lecithin liposomes (malonaldehyde). Particulars: relative to EGCG taken as 100%. The protocol: The ability of NDGA to prevent UV-induced lipid peroxidation was measured in comparison to other antioxidant industry standards such as vitamin E, vitamin C and green tea polyphenols. The assay was performed by irradiating a suspension of lecithin liposomes with UV light for 4 hours, in the absence or in the presence of the different compounds. Malonaldehyde levels (a breakdown product of oxidized lipids) were measured in aliquots of the reaction mixture at different times. The rate of lipid oxidation was calculated from the increase in malonaldehyde content. Relative potency was calculated by taking epigallocatechin gallate (EGCG) as 100%. The antioxidant used in the comparisons are listed in the left column. The middle column lists the effective concentration at which the compound is 50% effective (EC 50) for inhibition of lipid peroxidation, while the right column lists the relative potency of the samples, as compared to polyphenol of tea, which is taken as 100.

Test [9] can be described thus: Singlet oxygen scavenging test (Rose Bengal / iodide). To be noted: % inhibition of control; compared with Coenzyme Q10 and green tea polyphenols. The protocol: Singlet forms of molecular oxygen are excited electronic configurations that are more reactive than the spin-restricted ground state. These forms can be generated in tissues by a variety of mechanisms. Particularly relevant to the skin is light-induced production of singlet oxygen. The singlet oxygen scavenging test is performed by irradiation of a reaction mixture that contains a photosensitizer dye (Rose Bengal) and iodide ions. The excited dye transfers its energy to ground state oxygen to generate singlet oxygen which in turn oxidizes iodide to I3^−. Production of I3^− is followed spectrophotometrically at 355 nm. If a test sample is a singlet oxygen quencher, it will decrease the rate of I3^− production.

In test [10] the test system is MMP 13. Particulars: human chondrosarcoma cell line SW1353; cited from earlier work.
Test [11] relates to normal human keratinocytes. The test can be described thus: UVB-induced TNF-α production by keratinocytes (ELISA, normalized to MTT viability). To be noted: UVB 35 mJ/cm2, 24 hrs; low concentrations of NDGA.
Test [12] is described as follows: Hydroxyl radical scavenging (Fenton reaction, terephthalic acid). To be noted: compared with green tea polyphenols, glutathione, vitamin E. The protocol:
Hydroxyl radical scavenging of NDGA was measured by generation of .OH via the Fenton reaction with terephthalic acid as oxidizable substrate. Hydroxylation of terephthalic acid results in production of a fluorescent product. The rate of the reaction is determined by measuring the time course of fluorescence increase. If a test sample is a hydroxyl radical scavenger, it will decrease the reaction rate.
FIG. 6 is a table displaying hydroxyl radical scavenging activity of NDGA in comparison with green tea polyphenols (GTP) and Vitamin E, indicated in the left column.

The test system of test [13] is AP-1 transcription factor. Particulars: keratinocyte cell line HaCaT; very low levels; cited from earlier work.
Test [14] deals with MMP 13. To be noted: primary human chondrocytes; cited from earlier work.

Several values for one entry are separate records, joined by “and”; a condition that tells them apart may be missing. Equal entries are not always repeated. Entries after “also recorded” stand apart in the source; their conditions may differ. Where two headings read alike, the source gives them in different places.

Chain of MMP-9 (also known as gelatinase) (P14780 94-707, species assumed): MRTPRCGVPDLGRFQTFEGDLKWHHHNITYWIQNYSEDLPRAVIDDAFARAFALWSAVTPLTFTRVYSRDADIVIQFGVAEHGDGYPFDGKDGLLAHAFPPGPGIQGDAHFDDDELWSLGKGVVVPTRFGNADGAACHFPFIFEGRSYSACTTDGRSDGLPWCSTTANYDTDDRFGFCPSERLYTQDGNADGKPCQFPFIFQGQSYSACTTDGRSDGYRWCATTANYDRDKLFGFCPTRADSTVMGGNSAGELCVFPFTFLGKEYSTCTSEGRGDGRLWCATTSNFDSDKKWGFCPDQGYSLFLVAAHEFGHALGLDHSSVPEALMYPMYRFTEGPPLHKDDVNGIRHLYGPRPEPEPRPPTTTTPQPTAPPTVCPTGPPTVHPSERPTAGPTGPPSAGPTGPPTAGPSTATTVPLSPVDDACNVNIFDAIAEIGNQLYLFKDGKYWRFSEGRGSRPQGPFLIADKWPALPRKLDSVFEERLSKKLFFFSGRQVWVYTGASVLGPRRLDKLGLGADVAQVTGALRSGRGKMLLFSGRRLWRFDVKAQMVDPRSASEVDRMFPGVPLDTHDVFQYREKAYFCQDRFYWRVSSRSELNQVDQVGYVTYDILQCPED

Consider `NC(Cc1c[nH]c2ccccc12)C(=O)NO` (stereo not drawn) [tryptophan hydroxamate], for which the “MMP-9 inhibitory activity (in words)” value in [1] is “excellent and potent inhibitors of matrix metalloproteases”.

The term IC50 denotes the concentration at which inhibition is half-maximal. Low values mean higher potency, high ones lower potency. Molecule `O=C(NO)c1ccccc1O` [SHA, Salicylhydroxamate] had a concentration for half-maximal inhibition (IC50) in [2] of 0.06 µM. In addition, the “inhibition of tyrosinase activity” value in test [2] (Thirty nanomolar SHA) is given as “over 30%”. Besides, the “MMP-9 inhibitory activity (in words)” value in [1] was “excellent and potent inhibitors of matrix metalloproteases”. In test [3], the “PGE2 production normalized to cell viability (anti-inflammatory effect)” value is “potent anti-inflammatory effects”. Moreover, the “cornified envelope formation (terminal differentiation)” value in [4] is “induces terminal differentiation of keratinocytes, increases the formation of CE”. In addition, the “integrin expression (alpha-2, -3, -5) vs control” value in [5] is “increasing the integrin expression of keratinocytes and fibroblasts”; in [6], “increasing the integrin expression of keratinocytes”. The “stimulation of collagen secretion compared to control” value in [7] is reported as “significantly stimulated the collagen synthesis of fibroblasts”.

Regarding `CC(Cc1ccc(O)c(O)c1)C(C)Cc1ccc(O)c(O)c1` (stereo not drawn) [NDGA, nordihydroguaiaretic acid], the “relative potency, inhibition of lipid peroxidation” value in test [8] is listed as “twice as potent as the next most effective antioxidant (EGCG); also recorded: two orders of magnitude more potent than the vitamin E varieties”. The “singlet oxygen scavenging activity” value in test [9] is “very powerful singlet oxygen scavenger, equivalent to green tea polyphenols and better than coenzyme Q10”. Further, the “inhibition of TNF-α induced MMP 13 mRNA and protein induction” value in test [10] is “inhibits TNF-α induced MMP 13 mRNA and protein induction”; in [14] it was “inhibits TNF-α induced MMP 13 mRNA and protein induction”. Further, the “TNF alpha production normalized to cell viability” value in test [11] was “effectively blocked UVB-induced inflammation in keratinocytes; also recorded: much more effective than dexamethasone or green tea polyphenols”. Also, in [12], the “hydroxyl radical scavenging activity” value is “slightly more effective than green tea polyphenols and far more potent than glutathione or vitamin E”. Further, the IC50 in [1] (IC50 MMP-9 inhibition, fluorogenic peptide, 2 hours) is ~232 µM and ~100 µM. Besides, in test [1], the “MMP-9 inhibitory activity (in words)” value is given as “very high MMP-9 inhibitory activity”. Besides, in test [13], the “inhibition of AP-1 activation” value is given as “at very low levels inhibits AP-1 activation”.
